Source: US20040087571A1, “Methods of using CCR1 antagonists as immunomodulatory agents” (Pfizer Inc, priority 2002, published 2004)

Row | Structure (SMILES) | melting point [°C]
1 | NC(=O)[C@H](Cc1ccccc1)C[C@H](O)[C@H](Cc1ccccc1)NC(=O)c1cnc2c(c1)CCC2 [Example 286, 6,7-Dihydro-5H-[1]pyrindine-3-carboxylic acid (1(S)-benzyl-4(R)-carbamoyl-2(S)-hydroxy-5-phenyl-pentyl)-amide] | 182 to 186
2 | CC(C)(F)CC[C@H](C[C@H](O)[C@H](Cc1ccc(Cl)c(Cl)c1)NC(=O)c1cnc2c(F)c(F)ccc2c1)C(N)=O [Example 156, 7,8-Difluoro-quinoline-3-carboxylic acid [4(R)-carbamoyl-1(S)-(3,4-dichloro-benzyl)-7-fluoro-2(S)-hydroxy-7-methyl-octyl]-amide] | 187 to 189
3 | CC(C)(F)CC[C@H](C[C@H](O)[C@H](Cc1ccccc1)NC(=O)c1cnc2ccccc2n1)C(=O)NCCc1c[nH]c2ccccc12 [Example 230, Quinoxaline-2-carboxylic acid {1(S)-benzyl-7-fluoro-2(S)-hydroxy-4(R)-[2-(1H-indol-3-yl)-ethylcarbamoyl]-7-methyl-octyl}-amide] | 107 to 108
4 | NC(=O)[C@H](C[C@H](O)[C@H](Cc1cccs1)NC(=O)c1cnc2ccccc2n1)C1(O)CCCCC1 [Example 268, Quinoxaline-2-carboxylic acid [4(R)-carbamoyl-2(S)-hydroxy-4-(1-hydroxy-cyclohexyl)-1(S)-thiophen-2-ylmethyl-butyl]-amide] | 206 to 207
5 | CC(C)CC[C@H](C[C@H](O)[C@H](Cc1cccc(F)c1)NC(=O)c1cnc2ccccc2n1)C(N)=O [Example 135, Quinoxaline-2-carboxylic acid [4(R)-carbamoyl-1(S)-(3-fluoro-benzyl)-2(S)-hydroxy-7-methyl-octyl]-amide] | 191 to 191.5
6 | O=C(N[C@@H](Cc1ccccc1)[C@@H](O)C[C@H](C(=O)NO)C1(O)C2CC3CC(C2)CC1C3)c1cnc2ccccc2n1 (stereo partly drawn) [Example 297, Quinoxaline-2-carboxylic acid [1(S)-benzyl-2(S)-hydroxy-4(S)-(2-hydroxy-adamantan-2-yl)-4-hydroxycarbamoyl-butyl]-amide] | 133 to 134
7 | CC1CC(C)CC([C@@H](C[C@H](O)[C@H](Cc2ccccc2)NC(=O)c2cnc3ccccc3n2)C(N)=O)C1 (stereo partly drawn) [Example 210, Quinoxaline-2-carboxylic acid [1(S)-benzyl-4(R)-carbamoyl-4-(3,5-dimethyl-cyclohexyl)-2(S)-hydroxy-butyl]-amide] | 221 to 222
8 | NC(=O)[C@@H](C[C@H](O)[C@H](Cc1ccccc1)NC(=O)c1cnc2ccccc2n1)C1CCCCCC1 [Example 181, Quinoxaline-2-carboxylic acid (1(S)-benzyl-4(S)-carbamoyl-4-cycloheptyl-2(S)-hydroxy-butyl)-amide] | 216 to 217
9 | NC(=O)[C@@H](C[C@H](O)[C@H](Cc1ccccc1)NC(=O)c1cnc2ccccc2n1)C1(O)C2CCCC1CCC2 (stereo partly drawn) [Example 296, Quinoxaline-2-carboxylic acid [1(S)-benzyl-4(S)-carbamoyl-2(S)-hydroxy-4-(9-hydroxy-bicyclo[3.3.1]non-9-yl)-butyl]-amide] | 268 to 269
10 | CNC(=O)[C@H](CC(C)C)C[C@H](O)[C@H](Cc1ccc(O)cc1)NC(=O)c1cnc2ccccc2c1 [Example 44, Quinoline-3-carboxylic acid [2(S)-hydroxy-1(S)-(4-hydroxy-benzyl)-6-methyl-4(R)-methylcarbamoyl-heptyl]-amide] | 220.5 to 222.5
11 | NC(=O)[C@H](Cc1ccc(F)cc1)C[C@H](O)[C@H](Cc1ccccc1)NC(=O)c1cnc2ccccc2n1 [Example 194, Quinoxaline-2-carboxylic acid [1(S)-benzyl-4(R)-carbamoyl-5-(4-fluoro-phenyl)-2(S)-hydroxy-pentyl]-amide] | 164 to 166
12 | CC(C)C[C@H](C[C@H](O)[C@H](CC1CCCCC1)NC(=O)c1cnc2ccccc2c1)C(N)=O [Example 20, Quinoline-3-carboxylic acid (4(R)-carbamoyl-1(S)-cyclohexylmethyl-2(S)-hydroxy-6-methyl-heptyl)-amide] | 186 to 188
13 | NC(=O)[C@H](Cc1ccc(OC(F)(F)F)cc1)C[C@H](O)[C@H](Cc1ccccc1)NC(=O)c1cnc2ccccc2n1 [Example 193, Quinoxaline-2-carboxylic acid [1(S)-benzyl-4(R)-carbamoyl-2(S)-hydroxy-5-(4-trifluoromethoxy-phenyl)-pentyl]-amide] | 184 to 187
14 | CNC(=O)C[C@H](C[C@H](O)[C@H](Cc1ccccc1)NC(=O)c1cnc2ccccc2n1)C(=O)NC [Example 151, 2(S)-{2(S)-hydroxy-4-phenyl-3(S)-[(quinoxaline-2-carbonyl)-amino]-butyl}-N1,N4-dimethyl-succinamide] | 178 to 180
15 | NC(=O)[C@H](Cc1cccc(F)c1)C[C@H](O)[C@H](Cc1ccccc1)NC(=O)c1cnc2ccccc2n1 [Example 292, Quinoxaline-2-carboxylic acid [1(S)-benzyl-4(R)-carbamoyl-5-(3-fluoro-phenyl)-2(S)-hydroxy-pentyl]-amide] | 176 to 179
16 | NC(=O)[C@@H](C[C@H](O)[C@H](Cc1ccccc1)NC(=O)c1cnc2ccccc2n1)C1(O)CCSCC1 [Example 269, Quinoxaline-2-carboxylic acid [1(S)-benzyl-4(S)-carbamoyl-2(S)-hydroxy-4-(4-hydroxy-tetrahydro-thiopyran-4-yl)-butyl]-amide] | 123 to 125
17 | CC(C)CC[C@H](C[C@H](O)[C@H](Cc1cscn1)NC(=O)c1cnc2ccccc2n1)C(N)=O [Example 178, Quinoxaline-2-carboxylic acid (4(R)-carbamoyl-2(S)-hydroxy-7-methyl-1(S)-thiazol-4-ylmethyl-octyl)-amide] | 195 to 196
18 | NC(=O)[C@H](Cc1ccccc1)C[C@H](O)[C@H](Cc1ccccc1)NC(=O)c1cnc2c(F)cccc2c1 [Example 285, 8-Fluoro-quinoline-3-carboxylic acid (1(S)-benzyl-4(R)-carbamoyl-2(S)-hydroxy-5-phenyl-pentyl)-amide] | 206 to 209
19 | NC(=O)[C@@H](C[C@H](O)[C@H](Cc1ccccc1)NC(=O)c1cnc2ccccc2n1)C1(O)CCC(C(F)(F)F)CC1 (stereo partly drawn) [Example 308, Quinoxaline-2-carboxylic acid [1(S)-benzyl-4(S)-carbamoyl-2(S)-hydroxy-4-(1-hydroxy-4-trifluoromethyl-cyclohexyl)-butyl]-amide] | 250 to 252
20 | CC(C)(F)CC[C@H](C[C@H](O)[C@@H](NC(=O)c1cnc2ccccc2n1)c1ccccc1)C(N)=O [Example 266, Quinoxaline-2-carboxylic acid (4(R)-carbamoyl-7-fluoro-2(S)-hydroxy-7-methyl-1(S)-phenyl-octyl)-amide] | 159 to 160.5
21 | CC(C)(O)CC[C@H](C[C@H](O)[C@H](Cc1ccc(F)c(F)c1)NC(=O)c1cnc2ccccc2n1)C(N)=O [Example 323, Quinoxaline-2-carboxylic acid [4(R)-carbamoyl-1(S)-(3,4-difluoro-benzyl)-2(S),7-dihydroxy-7-methyl-octyl]-amide] | 110 to 120
22 | CC(C)CCNC(=O)[C@H](CC(C)C)C[C@H](O)[C@H](Cc1ccccc1)NC(=O)c1cnc2ccccc2c1 [Example 48, Quinoline-3-carboxylic acid [1(S)-benzyl-2(S)-hydroxy-6-methyl-4(R)-(3-methyl-butylcarbamoyl)-heptyl]-amide] | 153 to 154
